These results are taken from paper PMC4457528, “Identification of Novel Small Molecule Inhibitors of Oncogenic RET Kinase” (PLoS ONE, 2015).

pIC50: −log10 of the molar value. Like-named read-outs stand apart in the source and are kept apart here.

For one assay, the target named is T1, wt RET (Homo sapiens, UniProt P07949).
T1 construct: purchased Invitrogen (SelectScreen service)
The assay is described as follows: Invitrogen SelectScreen in vitro kinase assay, wt RET. Type of assay: biochemical. The settings on record: read-out: in vitro IC50 dose: RET. The text has this: Fig 2 ALW-II-41-27, HG-6-63-01 and XMD15-44 chemical structure. A) Chemical structure of the studied compounds: red colour indicates the “tail”, black colour indicates “linker”, and pink colour indicates the “head” part in the binding. B) Modelling of ALW-II-41-27 (left), XMD15-44 (middle) and HG-6-63-01(right) binding to the DFG-out conformation of RET.
Though more rarely than C634 and M918 mutations, other mutations targeting RET residues in the tyrosine kinase domain can cause familial or sporadic MTC [1, 2]. […] Of note, RET A883 residue is located in the VI Hanks domain adjacent to RET activation loop and it corresponds to G372 residue in ABL kinase whose mutation has been isolated in imatinib-resistant patients.

A further assay concerns TT cells. The assay is described as follows: Growth curves, TT medullary thyroid carcinoma cells (RET/C634W). The assay is classed as cell-based. To be noted: Homo sapiens, 20% serum, 95% CI in brackets, read-out: Growth inhibition IC50 dose TT. The procedure: (§1) TT human cell line was obtained in 2002 from ATCC and authenticated by RET genotyping; it was derived from a MTC and harbors a cysteine 634 to tryptophan (C634W) RET mutation. TT cells were grown in RPMI 1640 supplemented with 20% fetal calf serum (GIBCO). MZ-CRC-1 human cells were kindly provided in 2009 by Robert F. Gagel (MD Anderson, Houston, TX) and authenticated by RET genotyping. […] Nthy-ori 3–1, a human thyroid follicular epithelial cell line immortalized by the SV40 large T gene, was obtained from European Collection of Cell Cultures (ECACC) (Wiltshire, UK) in 2010.
(§2) To compare cell growth, we performed unpaired Student’s t test using the Instat software program (Graphpad Software Inc). P values were two-sided, and differences were considered statistically significant at P <.02. IC50 doses were calculated through a curve fitting analysis from last day values using the PRISM software program (Graphpad Software Inc).

In the next assay the test system is TPC-1 cells. As to the kind of experiment: Growth curves, TPC-1 papillary thyroid carcinoma cells (RET/PTC1). The assay is classed as cell-based. To be noted: Homo sapiens, TPC1; 2% serum; 95% CI in brackets; read-out: Growth inhibition IC50 dose TPC-1. The procedure:
as §1, §2

Assay [1] deals with T2, KinomeScan kinase panel (Homo sapiens, UniProt O75747).
T2 construct: purchased DiscoveRx (KinomeScan)
The assay is described as follows: KinomeScan kinase panel, single concentration 10 µM. The settings on record: PIK3C2G, 10 µM; read-out: score (%). The assay is classed as binding.

In assay [2] the target is T3, KinomeScan kinase panel (Homo sapiens, UniProt Q9UPZ9).
T3 construct: purchased DiscoveRx (KinomeScan)
Described as above. The assay is classed as binding. The settings on record: ICK, 10 µM; read-out: score (%).

Assay [3] deals with T4, KinomeScan kinase panel (Homo sapiens, UniProt Q9UEW8).
T4 construct: purchased DiscoveRx (KinomeScan)
Described as above. Type of assay: binding. To be noted: kinase STK39; 10 µM; read-out: score (%).

Assay [4] concerns the target T5, KinomeScan kinase panel (Homo sapiens, UniProt Q13464).
T5 construct: purchased DiscoveRx (KinomeScan)
The assay is described as above. The settings on record: read-out: score (%). The assay is classed as binding.

Assay [5] deals with T6, KinomeScan kinase panel (Homo sapiens, UniProt Q8IY84).
T6 construct: purchased DiscoveRx (KinomeScan)
T6 sequence (Q8IY84 whole entry): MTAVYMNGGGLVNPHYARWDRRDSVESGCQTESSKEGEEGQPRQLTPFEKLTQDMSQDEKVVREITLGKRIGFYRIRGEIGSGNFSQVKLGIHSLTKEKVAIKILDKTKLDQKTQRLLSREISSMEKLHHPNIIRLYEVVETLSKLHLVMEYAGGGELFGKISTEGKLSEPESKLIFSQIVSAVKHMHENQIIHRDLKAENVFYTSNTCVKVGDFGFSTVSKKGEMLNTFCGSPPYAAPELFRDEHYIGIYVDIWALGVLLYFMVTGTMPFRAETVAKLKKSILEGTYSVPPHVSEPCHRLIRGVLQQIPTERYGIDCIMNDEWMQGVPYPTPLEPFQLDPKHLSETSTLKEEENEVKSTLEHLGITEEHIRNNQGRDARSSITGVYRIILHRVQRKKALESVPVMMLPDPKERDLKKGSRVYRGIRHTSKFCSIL
The description is as above. The assay is classed as binding. To be noted: NIM1, 10 µM; read-out: score (%).

The target in assay [6] is T7, KinomeScan kinase panel (Homo sapiens, UniProt Q9H2X6).
T7 construct: purchased DiscoveRx (KinomeScan)
T7 sequence (Q9H2X6 whole entry): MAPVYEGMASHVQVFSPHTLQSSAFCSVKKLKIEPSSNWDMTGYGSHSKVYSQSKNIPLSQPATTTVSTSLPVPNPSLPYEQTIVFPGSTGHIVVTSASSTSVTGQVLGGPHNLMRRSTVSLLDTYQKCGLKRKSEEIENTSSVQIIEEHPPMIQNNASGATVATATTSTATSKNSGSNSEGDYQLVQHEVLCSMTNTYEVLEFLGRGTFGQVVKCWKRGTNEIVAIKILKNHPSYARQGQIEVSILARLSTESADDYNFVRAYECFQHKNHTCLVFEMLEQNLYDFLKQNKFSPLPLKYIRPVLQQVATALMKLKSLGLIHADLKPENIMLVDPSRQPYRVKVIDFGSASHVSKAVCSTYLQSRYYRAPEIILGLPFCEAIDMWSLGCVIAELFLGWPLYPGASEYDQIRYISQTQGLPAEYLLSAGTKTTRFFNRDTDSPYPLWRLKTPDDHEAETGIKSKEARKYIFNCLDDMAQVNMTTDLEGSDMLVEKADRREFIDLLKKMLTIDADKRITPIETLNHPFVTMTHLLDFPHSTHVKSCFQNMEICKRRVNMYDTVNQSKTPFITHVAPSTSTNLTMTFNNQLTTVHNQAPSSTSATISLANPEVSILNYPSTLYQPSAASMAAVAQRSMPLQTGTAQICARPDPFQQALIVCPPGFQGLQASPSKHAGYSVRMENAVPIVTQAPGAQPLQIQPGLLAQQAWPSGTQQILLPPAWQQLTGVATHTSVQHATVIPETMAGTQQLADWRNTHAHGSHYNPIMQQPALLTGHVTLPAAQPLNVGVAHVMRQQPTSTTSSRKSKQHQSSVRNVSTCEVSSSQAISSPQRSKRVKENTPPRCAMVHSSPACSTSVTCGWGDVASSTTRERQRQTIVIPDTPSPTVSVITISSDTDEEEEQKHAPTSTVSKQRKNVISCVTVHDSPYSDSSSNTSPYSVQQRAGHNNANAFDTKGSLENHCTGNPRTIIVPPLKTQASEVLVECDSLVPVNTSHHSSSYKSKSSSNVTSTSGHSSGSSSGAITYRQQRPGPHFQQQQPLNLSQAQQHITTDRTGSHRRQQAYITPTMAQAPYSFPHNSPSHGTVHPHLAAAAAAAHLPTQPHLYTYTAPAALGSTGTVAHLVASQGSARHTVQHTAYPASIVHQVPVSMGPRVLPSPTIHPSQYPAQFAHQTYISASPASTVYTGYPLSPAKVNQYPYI
Described as above. The assay is classed as binding. To be noted: HIPK2, 10 µM; read-out: score (%).

Assay [7] addresses T8, KinomeScan kinase panel (Homo sapiens, UniProt P42679).
T8 construct: purchased DiscoveRx (KinomeScan)
The description is as above. Type of assay: binding. The settings on record: CTK, 10 µM; read-out: score (%).

Assay [8] concerns the target T9, KinomeScan kinase panel (Homo sapiens, UniProt Q9UHD2).
T9 construct: purchased DiscoveRx (KinomeScan)
The description is as above. Type of assay: binding. The settings on record: kinase TBK1; 10 µM; read-out: score (%).

Assay [9] deals with T10, KinomeScan kinase panel (Homo sapiens, UniProt O95382).
T10 construct: purchased DiscoveRx (KinomeScan)
The description is as above. Type of assay: binding. To be noted: ASK2, 10 µM; read-out: score (%).

In assay [10] the target is T11, KinomeScan kinase panel (Homo sapiens, UniProt Q9UBF8).
T11 construct: purchased DiscoveRx (KinomeScan)
T11 sequence (Q9UBF8 whole entry): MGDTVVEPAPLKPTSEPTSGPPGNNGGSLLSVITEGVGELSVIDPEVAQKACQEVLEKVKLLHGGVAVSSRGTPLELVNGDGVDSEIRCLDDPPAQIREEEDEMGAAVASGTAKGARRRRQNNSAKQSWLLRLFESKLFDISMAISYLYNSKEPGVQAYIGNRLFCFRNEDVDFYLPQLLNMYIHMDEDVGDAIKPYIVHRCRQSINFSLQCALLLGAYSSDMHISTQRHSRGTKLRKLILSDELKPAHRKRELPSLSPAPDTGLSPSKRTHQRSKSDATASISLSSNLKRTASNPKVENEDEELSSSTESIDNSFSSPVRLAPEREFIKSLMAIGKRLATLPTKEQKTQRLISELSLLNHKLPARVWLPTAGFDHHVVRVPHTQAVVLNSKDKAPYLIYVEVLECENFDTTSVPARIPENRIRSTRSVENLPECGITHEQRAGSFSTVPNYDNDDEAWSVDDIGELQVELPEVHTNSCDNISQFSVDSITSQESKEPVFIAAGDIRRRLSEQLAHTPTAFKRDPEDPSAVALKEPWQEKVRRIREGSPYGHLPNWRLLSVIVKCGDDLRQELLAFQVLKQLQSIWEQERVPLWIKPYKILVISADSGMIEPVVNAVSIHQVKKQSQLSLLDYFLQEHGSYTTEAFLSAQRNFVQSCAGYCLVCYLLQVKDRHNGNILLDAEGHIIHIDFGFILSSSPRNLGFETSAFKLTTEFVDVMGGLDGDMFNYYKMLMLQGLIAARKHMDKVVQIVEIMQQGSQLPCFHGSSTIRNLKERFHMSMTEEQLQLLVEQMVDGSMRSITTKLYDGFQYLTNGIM
Described as above. The assay is classed as binding. The settings on record: PIK4CB, 10 µM; read-out: score (%).

In assay [11] the target is T12, KinomeScan kinase panel (Homo sapiens, UniProt Q9H422).
T12 construct: purchased DiscoveRx (KinomeScan)
Described as above. Type of assay: binding. The settings on record: HIPK3, 10 µM; read-out: score (%).

The target of assay [12] is T13, KinomeScan kinase panel (Homo sapiens, UniProt O75460).
T13 construct: purchased DiscoveRx (KinomeScan)
T13 sequence (O75460 19-977): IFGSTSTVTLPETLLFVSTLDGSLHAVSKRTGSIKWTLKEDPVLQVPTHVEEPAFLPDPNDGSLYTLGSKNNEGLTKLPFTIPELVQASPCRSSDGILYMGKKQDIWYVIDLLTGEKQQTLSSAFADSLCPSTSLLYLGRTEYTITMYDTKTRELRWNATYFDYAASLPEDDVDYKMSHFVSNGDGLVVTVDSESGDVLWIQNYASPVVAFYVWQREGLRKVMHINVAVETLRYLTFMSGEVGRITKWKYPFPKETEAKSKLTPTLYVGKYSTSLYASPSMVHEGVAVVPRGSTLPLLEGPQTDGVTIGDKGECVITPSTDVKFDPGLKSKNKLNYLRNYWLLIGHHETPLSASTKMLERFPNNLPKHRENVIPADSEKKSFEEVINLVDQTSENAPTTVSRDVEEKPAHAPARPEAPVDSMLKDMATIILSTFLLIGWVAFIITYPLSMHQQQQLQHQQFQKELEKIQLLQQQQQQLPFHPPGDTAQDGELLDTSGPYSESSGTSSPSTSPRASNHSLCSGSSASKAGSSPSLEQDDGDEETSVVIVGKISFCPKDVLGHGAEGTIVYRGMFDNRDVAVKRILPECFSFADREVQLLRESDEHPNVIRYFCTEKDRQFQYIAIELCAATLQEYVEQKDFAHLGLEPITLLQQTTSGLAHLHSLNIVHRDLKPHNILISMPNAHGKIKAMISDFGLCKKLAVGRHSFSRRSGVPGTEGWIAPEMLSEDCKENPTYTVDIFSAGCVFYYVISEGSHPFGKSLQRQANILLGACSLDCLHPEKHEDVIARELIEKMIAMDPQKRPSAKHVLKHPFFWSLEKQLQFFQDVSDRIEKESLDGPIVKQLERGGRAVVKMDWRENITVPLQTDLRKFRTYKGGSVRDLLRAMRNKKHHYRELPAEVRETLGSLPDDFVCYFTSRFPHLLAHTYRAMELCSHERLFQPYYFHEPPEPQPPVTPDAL
The description is as above. Type of assay: binding. The settings on record: ERN1, 10 µM; read-out: score (%).

Assay [13] has as its target T14, KinomeScan kinase panel (Homo sapiens, UniProt P42336, H1047Y).
T14 construct: purchased DiscoveRx (KinomeScan)
Described as above. The assay is classed as binding. The settings on record: PIK3CA(H1047Y), 10 µM; read-out: score (%).

Assay [14] has as its target T15, KinomeScan kinase panel (Homo sapiens, UniProt Q6ZN16).
T15 construct: purchased DiscoveRx (KinomeScan)
The assay is described as above. To be noted: MAP3K15, 10 µM; read-out: score (%). Type of assay: binding.

In assay [15] the target is T16, KinomeScan kinase panel (Homo sapiens, UniProt P42336, M1043I).
T16 construct: purchased DiscoveRx (KinomeScan)
Described as above. The assay is classed as binding. The settings on record: PIK3CA(M1043I), 10 µM; read-out: score (%).

The target of assay [16] is T17, KinomeScan kinase panel (Homo sapiens, UniProt P10721, L576P).
T17 construct: purchased DiscoveRx (KinomeScan)
The description is as above. The assay is classed as binding. The settings on record: KIT(L576P), 10 µM; read-out: score (%).

In assay [17] the target is T18, KinomeScan kinase panel (Homo sapiens, UniProt Q9Y2H9).
T18 construct: purchased DiscoveRx (KinomeScan)
The description is as above. The assay is classed as binding. To be noted: MAST1, 10 µM; read-out: score (%).

Assay [18] addresses T19, KinomeScan kinase panel (Homo sapiens, UniProt Q8NE63).
T19 construct: purchased DiscoveRx (KinomeScan)
The assay is described as above. The assay is classed as binding. The settings on record: HIPK4, 10 µM; read-out: score (%).

For assay [19], the target named is T20, KinomeScan kinase panel (Homo sapiens, UniProt Q13523).
T20 construct: purchased DiscoveRx (KinomeScan)
The description is as above. The assay is classed as binding. To be noted: read-out: score (%).

Assay [20] addresses T21, KinomeScan kinase panel (Homo sapiens, UniProt O95747).
T21 construct: purchased DiscoveRx (KinomeScan)
Described as above. To be noted: OSR1, 10 µM; read-out: score (%). The assay is classed as binding.

In the next assay the test system is RAT RET/M918T cells. As to the kind of experiment: Growth curves, RAT1 cells transformed by RET/M918T. The assay is classed as cell-based. To be noted: low serum, last day values, 95% CI in brackets, read-out: Growth inhibition IC50 dose: RAT RET/M918T. The procedure:
as §2

The target in assay [21] is T22, KinomeScan kinase panel (Homo sapiens, UniProt Q9Y6M4).
T22 construct: purchased DiscoveRx (KinomeScan)
As to the kind of experiment: KinomeScan kinase panel, single concentration 10 µM. Type of assay: binding. The settings on record: CSNK1G3, 10 µM.

T1 sequence (P07949 29-1114): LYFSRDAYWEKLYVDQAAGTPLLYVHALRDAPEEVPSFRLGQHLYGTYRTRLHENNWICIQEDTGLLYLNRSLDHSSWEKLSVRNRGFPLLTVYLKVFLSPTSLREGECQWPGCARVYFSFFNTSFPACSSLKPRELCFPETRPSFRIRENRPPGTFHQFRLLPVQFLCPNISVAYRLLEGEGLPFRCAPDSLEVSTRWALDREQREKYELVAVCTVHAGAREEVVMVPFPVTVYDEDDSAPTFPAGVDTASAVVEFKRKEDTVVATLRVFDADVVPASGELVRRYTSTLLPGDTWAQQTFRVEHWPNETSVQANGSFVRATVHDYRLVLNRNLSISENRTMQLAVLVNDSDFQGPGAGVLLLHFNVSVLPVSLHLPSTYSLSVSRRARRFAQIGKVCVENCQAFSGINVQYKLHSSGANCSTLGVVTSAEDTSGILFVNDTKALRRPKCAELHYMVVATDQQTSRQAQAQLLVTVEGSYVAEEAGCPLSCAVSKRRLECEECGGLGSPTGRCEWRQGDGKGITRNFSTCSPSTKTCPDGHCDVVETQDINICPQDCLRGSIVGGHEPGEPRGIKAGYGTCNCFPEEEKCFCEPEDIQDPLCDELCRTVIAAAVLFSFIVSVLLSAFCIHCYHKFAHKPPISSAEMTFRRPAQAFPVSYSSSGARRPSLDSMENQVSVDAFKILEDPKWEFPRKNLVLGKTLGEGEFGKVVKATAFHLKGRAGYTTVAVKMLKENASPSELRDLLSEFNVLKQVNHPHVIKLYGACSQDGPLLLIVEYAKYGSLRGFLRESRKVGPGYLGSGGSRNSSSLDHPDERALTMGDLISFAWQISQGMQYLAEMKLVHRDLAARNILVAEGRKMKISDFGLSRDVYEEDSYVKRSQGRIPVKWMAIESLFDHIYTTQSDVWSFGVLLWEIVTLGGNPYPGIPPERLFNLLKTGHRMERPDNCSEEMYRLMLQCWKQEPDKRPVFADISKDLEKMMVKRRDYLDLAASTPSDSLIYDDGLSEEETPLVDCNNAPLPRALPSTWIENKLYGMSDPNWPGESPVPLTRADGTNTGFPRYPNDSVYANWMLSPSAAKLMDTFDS
T21 sequence (O95747 whole entry): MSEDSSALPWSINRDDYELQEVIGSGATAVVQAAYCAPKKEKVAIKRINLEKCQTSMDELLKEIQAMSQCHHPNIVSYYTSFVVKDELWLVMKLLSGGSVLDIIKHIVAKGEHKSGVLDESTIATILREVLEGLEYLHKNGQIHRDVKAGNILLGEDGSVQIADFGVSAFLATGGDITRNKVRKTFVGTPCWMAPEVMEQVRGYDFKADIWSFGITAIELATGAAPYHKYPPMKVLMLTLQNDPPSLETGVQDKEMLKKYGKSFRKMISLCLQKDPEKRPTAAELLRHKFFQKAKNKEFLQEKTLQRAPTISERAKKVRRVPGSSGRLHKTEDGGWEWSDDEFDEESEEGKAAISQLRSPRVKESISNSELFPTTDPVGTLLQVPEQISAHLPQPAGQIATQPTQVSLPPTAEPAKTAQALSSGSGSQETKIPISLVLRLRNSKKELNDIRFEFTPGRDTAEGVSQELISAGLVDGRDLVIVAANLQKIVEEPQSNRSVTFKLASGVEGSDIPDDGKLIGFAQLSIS

Turning to `CCN1CCN(Cc2ccc(NC(=O)c3ccc(C)c(NC(=O)c4cncc(-c5cccs5)c4)c3)cc2C(F)(F)F)CC1` [ALW-II-41-27], the pIC50 is 7.61 at wt RET, 8.24 in the assay with TT cells, 7.71 in the assay with TPC-1 cells and 7.25 in the assay with RAT RET/M918T cells. Moreover, the remaining binding at 10 µM at KinomeScan kinase panel [1] was greater than 30%; on KinomeScan kinase panel [2] it was greater than 30%; on KinomeScan kinase panel [3], greater than 30%; at KinomeScan kinase panel [4] (ROCK1, 10 µM), 0%; at KinomeScan kinase panel [5], greater than 30%; on KinomeScan kinase panel [6], greater than 30%. The remaining binding at 10 µM on KinomeScan kinase panel [7] is greater than 30%; on KinomeScan kinase panel [8] it was greater than 30%; at KinomeScan kinase panel [9], greater than 30%; on KinomeScan kinase panel [10], greater than 30%; at KinomeScan kinase panel [11], greater than 30%; at KinomeScan kinase panel [12], 1.4%. The remaining binding at 10 µM on KinomeScan kinase panel [13] was greater than 30%; on KinomeScan kinase panel [14], greater than 30%; at KinomeScan kinase panel [15], greater than 30%; at KinomeScan kinase panel [16], 0%; on KinomeScan kinase panel [17], greater than 30%; at KinomeScan kinase panel [18], 25%. Further, the remaining binding at 10 µM is greater than 30% on KinomeScan kinase panel [19] (PRP4, 10 µM) and greater than 30% on KinomeScan kinase panel [20].
On to `CCN1CCN(Cc2ccc(NC(=O)c3ccc(C)c(/C=C/c4cnc5[nH]ccc5c4Cl)c3)cc2C(F)(F)F)CC1` [HG-6-63-01, (E)-3-(2-(4-chloro-1H-pyrrolo[2,3-b]pyridin-5-yl)vinyl)-N-(4-((4-ethylpiperazin-1-yl)methyl)-3-(trifluoromethyl)phenyl)-4-methylbenzamide], for which the pIC50 on wt RET is 7.45; in the assay with TT cells, 8.64; in the assay with TPC-1 cells, 8.01; in the assay with RAT RET/M918T cells, 7.80. In addition, at KinomeScan kinase panel [21], the “score (%)” value is recorded as “nb (Hits values higher than 30% were considered negative (no binding: nb))”.
On to `CCN1CCN(Cc2ccc(NC(=O)c3ccc(C)c(C#Cc4cccnc4)c3)cc2C(F)(F)F)CC1` [XMD15-44], for which the pIC50 was 7.85 at wt RET, 8.82 with TT cells, 7.43 in the assay on TPC-1 cells and 8.08 with RAT RET/M918T cells. Moreover, the remaining binding at 10 µM is 100% on KinomeScan kinase panel [1]; greater than 30% on KinomeScan kinase panel [2]; 89% at KinomeScan kinase panel [3]; 43% on KinomeScan kinase panel [4] (kinase ROCK1, 10 µM); 97% at KinomeScan kinase panel [5]; greater than 30% on KinomeScan kinase panel [6]. Further, the remaining binding at 10 µM at KinomeScan kinase panel [7] is greater than 30%; at KinomeScan kinase panel [8], 100%; on KinomeScan kinase panel [9], 12%; at KinomeScan kinase panel [10] it was 100%; at KinomeScan kinase panel [11], 18%; at KinomeScan kinase panel [12], greater than 30%. The remaining binding at 10 µM is 81% at KinomeScan kinase panel [13]; greater than 30% on KinomeScan kinase panel [14]; 83% on KinomeScan kinase panel [15]; 0% on KinomeScan kinase panel [16]; greater than 30% at KinomeScan kinase panel [17]; 2.2% on KinomeScan kinase panel [18]. Besides, the remaining binding at 10 µM on KinomeScan kinase panel [19] (kinase PRP4, 10 µM) was 54%; on KinomeScan kinase panel [20], 48%. The “score (%)” value on KinomeScan kinase panel [21] is “nb (Hits values higher than 30% were considered negative (no binding: nb))”.
